Values of other authors as cited in patent US20140213990A1, “COMPOSITIONS AND METHODS FOR TREATING SURFACE WOUNDS” (priority 2013, published 2014).

Assays:
[1] = test system: diabetic foot ulcers; settings: at 20 weeks of treatment
[2] = Phase III clinical trials

## Becaplermin
[1]
  closure (healing) rate for diabetic foot ulcers: 44%
[2]
  patients in whom cancer appeared: 80%
